Data as given in ChEMBL document CHEMBL4177685, “Ionic liquid mediated stereoselective synthesis of alanine linked hybrid quinazoline-4(3H)-one derivatives perturbing the malarial reductase activity in folate pathway” (Bioorg Med Chem, 2017).
Values after ≈ are worked out from the molar mass of the structure shown.

Assays:
Plasmodium falciparum = assay: Antimalarial activity against Plasmodium falciparum in infected in human RBC; assay type: functional, organism-based; settings: Erythrocyte
Dihydrofolate reductase = biological target: T1, Dihydrofolate reductase (Bos taurus, UniProt P00376); assay: Inhibition of bovine liver DHFR using FH2 as substrate preincubated for 2 mins followed by substrate addition
T1 sequence (P00376 whole entry): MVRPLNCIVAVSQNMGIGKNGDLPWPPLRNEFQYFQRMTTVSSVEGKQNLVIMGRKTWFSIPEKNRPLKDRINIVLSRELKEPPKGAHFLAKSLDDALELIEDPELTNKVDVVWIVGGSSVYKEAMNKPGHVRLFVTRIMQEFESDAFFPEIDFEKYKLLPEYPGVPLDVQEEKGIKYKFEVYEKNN

Vero = assay: Cytotoxicity against African green monkey Vero cells up to 15 ug/ml after 72 hrs by MTT assay; assay type: cell-based; settings: chlorocebus sabaeus
bovine liver DHFR = assay: Selectivity index, ratio of IC50 for African green monkey Vero cells to IC50 for bovine liver DHFR; assay type: toxicity; settings: read-out: Ratio IC50

| IC50 (Plasmodium falciparum) [µg/mL] | IC50 (Dihydrofolate reductase) [nM] | SMILES | Activity (Vero) | selectivity ratio (bovine liver DHFR) |
| --- | --- | --- | --- | --- |
| 0.78 (≈ 1.5 µM) |  | COc1ccccc1/C=N/n1c(C(C)NS(=O)(=O)c2ccc(NC(C)=O)cc2)nc2ccccc2c1=O (stereo not given) |  |  |
| 1.05 (≈ 2.08 µM) |  | CC(=O)Nc1ccc(S(=O)(=O)NC(C)c2nc3ccccc3c(=O)n2/N=C/c2ccccc2O)cc1 (stereo not given) |  |  |
| 0.7 (≈ 1.31 µM) |  | CC(=O)Nc1ccc(S(=O)(=O)NC(C)c2nc3ccccc3c(=O)n2/N=C/c2ccccc2[N+](=O)[O-])cc1 (stereo not given) |  |  |
| 1.1 (≈ 2.25 µM) |  | CC(=O)Nc1ccc(S(=O)(=O)NC(C)c2nc3ccccc3c(=O)n2/N=C/c2ccccc2)cc1 (stereo not given) |  |  |
| 0.67 (≈ 1.18 µM) |  | CC(=O)Nc1ccc(S(=O)(=O)NC(C)c2nc3ccccc3c(=O)n2/N=C/c2ccc(Br)cc2)cc1 (stereo not given) |  |  |
| 0.78 (≈ 1.37 µM) |  | CC(=O)Nc1ccc(S(=O)(=O)NC(C)c2nc3ccccc3c(=O)n2/N=C/c2ccccc2Br)cc1 (stereo not given) |  |  |
| 0.092 (≈ 0.181 µM) | 53.2 | CC(=O)Nc1ccc(S(=O)(=O)NC(C)c2nc3ccccc3c(=O)n2/N=C/c2cccc(F)c2)cc1 (stereo not given) | Non-Toxic | 556 |
| 1.01 (≈ 2 µM) |  | CC(=O)Nc1ccc(S(=O)(=O)NC(C)c2nc3ccccc3c(=O)n2/N=C/c2cccc(O)c2)cc1 (stereo not given) |  |  |
| 0.7 (≈ 1.38 µM) |  | CC(=O)Nc1ccc(S(=O)(=O)NC(C)c2nc3ccccc3c(=O)n2/N=C/c2ccccc2F)cc1 (stereo not given) |  |  |
| 0.72 (≈ 1.43 µM) |  | CC(=O)Nc1ccc(S(=O)(=O)NC(C)c2nc3ccccc3c(=O)n2/N=C/c2cccc(C)c2)cc1 (stereo not given) |  |  |
| 1.28 (≈ 2.54 µM) |  | CC(=O)Nc1ccc(S(=O)(=O)NC(C)c2nc3ccccc3c(=O)n2/N=C/c2ccccc2C)cc1 (stereo not given) |  |  |
| 1.05 (≈ 2.01 µM) |  | CC(=O)Nc1ccc(S(=O)(=O)NC(C)c2nc3ccccc3c(=O)n2/N=C/c2ccccc2Cl)cc1 (stereo not given) |  |  |
| 1.02 (≈ 1.8 µM) |  | CC(=O)Nc1ccc(S(=O)(=O)NC(C)c2nc3ccccc3c(=O)n2/N=C/c2cccc(Br)c2)cc1 (stereo not given) |  |  |

The remaining lines, values behind:

| SMILES | IC50 (Plasmodium falciparum) [µg/mL] | IC50 (Dihydrofolate reductase) [nM] | Activity (Vero) | selectivity ratio (bovine liver DHFR) |
| --- | --- | --- | --- | --- |
| COc1ccc(/C=N/n2c(C(C)NS(=O)(=O)c3ccc(NC(C)=O)cc3)nc3ccccc3c2=O)cc1 (stereo not given) | 0.67 (≈ 1.29 µM) |  |  |  |
| CC(=O)Nc1ccc(S(=O)(=O)NC(C)c2nc3ccccc3c(=O)n2/N=C/c2cccc(Cl)c2)cc1 (stereo not given) | 1.01 (≈ 1.93 µM) |  |  |  |
| CC(=O)Nc1ccc(S(=O)(=O)NC(C)c2nc3ccccc3c(=O)n2/N=C/c2ccc(Cl)cc2)cc1 (stereo not given) | 0.72 (≈ 1.37 µM) |  |  |  |
| CC(=O)Nc1ccc(S(=O)(=O)NC(C)c2nc3ccccc3c(=O)n2/N=C/c2ccc(F)cc2)cc1 (stereo not given) | 0.084 (≈ 0.166 µM) | 67 | Non-Toxic | 441 |
| CC(=O)Nc1ccc(S(=O)(=O)NC(C)c2nc3ccccc3c(=O)n2/N=C/c2ccc([N+](=O)[O-])cc2)cc1 (stereo not given) | 0.084 (≈ 0.157 µM) | 82.3 | Non-Toxic | 341 |
| COc1cc(Cc2cnc(N)nc2N)cc(OC)c1OC [TRIMETHOPRIM] | 0.38 (≈ 1.31 µM) |  |  |  |
| CC(=O)Nc1ccc(S(=O)(=O)NC(C)c2nc3ccccc3c(=O)n2/N=C/c2cccc([N+](=O)[O-])c2)cc1 (stereo not given) | 0.092 (≈ 0.172 µM) | 99.1 | Non-Toxic | 283 |
| COc1cccc(/C=N/n2c(C(C)NS(=O)(=O)c3ccc(NC(C)=O)cc3)nc3ccccc3c2=O)c1 (stereo not given) | 1.02 (≈ 1.97 µM) |  |  |  |
| CC(=O)Nc1ccc(S(=O)(=O)NC(C)c2nc3ccccc3c(=O)n2/N=C/c2ccc(C)cc2)cc1 (stereo not given) | 0.068 (≈ 0.135 µM) | 165 | Non-Toxic | 181 |
| C=C[C@H]1CN2CC[C@H]1C[C@H]2[C@H](O)c1ccnc2ccc(OC)cc12 [QUININE] | 0.268 (≈ 0.826 µM) |  |  |  |
| CC(=O)Nc1ccc(S(=O)(=O)NC(C)c2nc3ccccc3c(=O)n2/N=C/c2ccc(O)cc2)cc1 (stereo not given) | 0.72 (≈ 1.42 µM) |  |  |  |
| CCc1nc(N)nc(N)c1-c1ccc(Cl)cc1 [PYRIMETHAMINE] | 0.25 (≈ 1.01 µM) |  |  |  |
